Source: patent US20250249144A1, “PEPTIDE AMPHIPHILE SUPRAMOLECULAR POLYMERS FOR SPRAY DELIVERY AND TISSUE REGENERATION APPLICATIONS” (The University of Southern Mississippi, priority 2024, published 2025)
Non-standard residues stand in square brackets, D forms with d. Residues, ends and D or L forms follow the SMILES beside them. ξ: configuration not given here. *: point of attachment. Palmitoyl = CCCCCCCCCCCCCCCC(=O)*; aThr = C[C@H](O)[C@H](N)C(=O)O; ξV = CC(C)C(N)C(=O)O

Key:
diabetic wound = diabetic wound model; cited from earlier work
[1] = system: full thickness injury, atopic dermatitis; conditions: rodent models of full thickness injury and atopic dermatitis; cited from earlier work
ERK receptor = conditions: cited from earlier work
dermal wound = conditions: rat full thickness excision model; cited from earlier work
full thickness burn = assay: burn injury murine model, wound closure; assay type: in vivo; conditions: mouse, 3 days and 7 days post treatment, one-way ANOVA, p<0.05
Procedure: The benefits of, and potential for, regeneration of the biocompatible and bioactive PA nanofiber scaffold was assessed in a mouse burn injury model. […] (See FIGS. 5 and 6). A 1×1 cm diameter steel billet was heated to 100° C. in a dry heat bath. Mice were anesthetized using isoflurane throughout the procedures. After successful anesthesia had been achieved, mice were clipped circumferentially on their trunks/dorsum and prepped with betadine. Burn injury was accomplished by applying the previously heated billet to the dorsum of each animal for 10 seconds. A total of 6 applications of the rod (3 on each side of the midline back) produced an approx. 20% total body surface area (TBSA) full thickness burn. Mice were further wrapped with a self-adherent wrap to protect the wound. Mice were resuscitated using 1.0 mL i.p. saline (which included 0.03 mL Buprenex SR and 0.06 mL Meloxicam SR) and placed onto warming pads until full recovery from anesthesia was determined. 8 hours post-burn, they received a 2nd bolus of 1 mL i.p. fluid. […] Healing was assessed following a single application. […] Quantification of wound healing was accomplished by digital image planimetry with ImageJ at 3 days, and 7 days post treatment, with representative images of wound healing at day 15 post treatment also being provided.

receptor of EPO = target: T1, receptor of EPO (Homo sapiens, UniProt P19235); conditions: cyclized through the cysteine residues; cited from earlier work
T1 sequence (P19235 25-508): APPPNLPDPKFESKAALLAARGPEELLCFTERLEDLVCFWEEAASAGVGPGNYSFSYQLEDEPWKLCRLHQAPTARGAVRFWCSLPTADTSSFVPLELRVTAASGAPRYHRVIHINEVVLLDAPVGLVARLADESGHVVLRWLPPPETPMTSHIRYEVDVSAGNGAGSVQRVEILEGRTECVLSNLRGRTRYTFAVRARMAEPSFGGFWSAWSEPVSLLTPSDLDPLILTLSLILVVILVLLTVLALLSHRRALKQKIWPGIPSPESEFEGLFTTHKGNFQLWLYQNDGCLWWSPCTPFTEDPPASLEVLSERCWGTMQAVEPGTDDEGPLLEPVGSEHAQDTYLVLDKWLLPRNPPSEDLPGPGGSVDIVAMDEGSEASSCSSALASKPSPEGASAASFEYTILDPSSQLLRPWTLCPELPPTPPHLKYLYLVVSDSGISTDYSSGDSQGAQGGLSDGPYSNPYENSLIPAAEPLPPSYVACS

erythropoiesis = conditions: mice; cited from earlier work

Question: With `N=C(N)NCCC[C@H](NC(=O)[C@@H](Cc1cnc[nH]1)NC(=O)[C@@H](N)CCC(N)=O)C(=O)N[C@H](CCC(=O)O)C(=O)N[C@@H](CC(=O)O)C(=O)NCC(=O)N[C@@H](CO)C(=O)O` [QHREDGS, QHREDGS (SEQ ID NO.4)] as the compound, how does the wound closure (diabetic wound) read?
Answer: significantly accelerate wound closure

Question: For `C[C@H](O)[C@H](NC(=O)[C@@H](CCCNC(=N)N)NC(=O)CNC(=O)[C@@H](CCC(=O)O)NC(=O)[C@@H](N)CCCNC(=N)N)C(=O)O` [REGRT, REGRT (SEQ ID NO.2)] (H-R[dE]G[dR][aThr]-OH), which wound healing [1] is on record?
Answer: promotion of wound healing

Question: And the “phosphorylation of the ERK receptor” value (ERK receptor)?
Answer: effective phosphorylation of the ERK receptor

Question: With `CC(C)C[C@@H](NC(=O)CNC(=O)[C@@H](Cc1ccc(O)cc1)NC(=O)[C@@H](NC(=O)[C@H](NC(=O)[C@@H](N)CO)C(C)C)C(C)C)C(=O)N[C@@H](CCCNC(=N)N)C(=O)O` [SVVYGLR, SVVYGLR (SEQ ID NO.: 3)] as the compound, how does the dermal wound healing (dermal wound) read?
Answer: effective in promoting dermal wound healing

Question: With `CCCCCCCCCCCCCCCC(=O)NC(C(=O)N[C@H](C(=O)NCC(=O)N[C@@H](C)C(=O)NCC(=O)N[C@@H](C)C(=O)N[C@H](CCC(=O)O)C(=O)N[C@@H](CCC(=O)O)C(=O)N[C@H](CCC(=O)O)C(N)=O)C(C)C)C(C)C` (stereo partly shown) [diluent PA] (Palmitoyl-[ξV]VGAGA[dE]E[dE]-NH2) as the compound, how does the “wound healing by digital image planimetry, significance vs control” value (full thickness burn) read?
Answer: significant at 7 days

Question: What does the source list for “GGTYSCHFGPLTWVCKPQGG (SEQ ID NO.: 1) [EMP1]”?
Answer: activation of the EPO receptor (receptor of EPO): capable of activating the receptor of EPO; erythropoiesis (erythropoiesis): stimulating erythropoiesis
